Patent publication US12121566B2, “Methods for treating gout” (Horizon Therapeutics USA, Inc., priority 2019, dated 2024)

Columns and labels:
rabbits = test: Reproductive toxicity in rabbits; format: in vivo, rabbit
[1] = tested on: anti-pegloticase antibodies, anti-PEG antibodies; details: cited from earlier work
[2] = tested on: patients with chronic gout refractory to conventional therapy; test: Two replicate randomized, double-blind, placebo controlled six-month studies (Trial 1 and Trial 2): urate lowering and tophi; format: in vivo, human
Experimental: The efficacy of KXX was studied in adult patients with chronic gout refractory to conventional therapy in two replicate, multicenter, randomized, double-blind, placebo controlled studies of six months duration: Trial 1 and Trial 2. Patients were randomized to receive KXX 8 mg every 2 weeks or every 4 weeks or placebo in a 2:2:1 ratio.
Studies were stratified for the presence of tophi. Seventy-one percent (71%) of patients had baseline tophi. All patients were prophylaxed with an oral antihistamine, intravenous corticosteroid and acetaminophen. Patients also received prophylaxis for gout flares with non-steroidal anti-inflammatory drugs (NSAIDs) or colchicine, or both, beginning at least one week before KXX treatment unless medically contraindicated or not tolerated. Patients who completed the randomized clinical trials were eligible to enroll in a 2-year open label extension study.
To assess the efficacy of KXX in lowering uric acid, the primary endpoint in both trials was the proportion of patients who achieved plasma uric acid (PUA) less than 6 mg/dL for at least 80% of the time during Month 3 and Month 6.
The effect of treatment on tophi was a secondary efficacy endpoint and was assessed using standardized digital photography, image analysis, and a Central Reader blinded to treatment assignment. Approximately 70% of patients had tophi at baseline. A pooled analysis of data from Trial 1 and Trial 2 was performed as pre-specified in the protocols. At Month 6, the percentage of patients who achieved a complete response (defined as 100% resolution of at least one target tophus, no new tophi appear and no single tophus showing progression) was 45%, 26%, and 8%, with KXX 8 mg every 2 weeks, KXX 8 mg every 4 weeks, and placebo, respectively. The difference between KXX and placebo was statistically significant for the every-2-week dosing regimen, but not for the every-4-week dosing regimen.

[3] = Stability of pegloticase diluted in infusion bags; format: physicochemical; details: at 2° C. to 8° C. and at room temperature (20° C. to 25° C.)
Experimental: Pegloticase-diluted in infusion bags is stable for 4 hours at 2° C. to 8° C. (36° F. to 46° F.) and at room temperature (20° C. to 25° C., 68° F. to 77° F.); however, it is recommended that the diluted solution be stored under refrigeration, not frozen, protected from light, and used within 4 hours of dilution. Before administration, the diluted solution of pegloticase should be allowed to reach room temperature. Pegloticase in a vial or in an IV infusion fluid should never be subjected to artificial heating.
KXX diluted in infusion bags is stable for 4 hours at 2° to 8° C. (36° to 46° F.) and at room temperature (20° to 25° C., 68° to 77° F.). However, it is recommended that diluted solutions be stored under refrigeration, not frozen, protected from light, and used within 4 hours of dilution. Before administration, allow the diluted solution of KXX to reach room temperature. KXX in a vial or in an intravenous infusion fluid should never be subjected to artificial heating (e.g., hot water, microwave).

[4] = post-hoc, if KXX stopped after 2 consecutive uric acid levels greater than 6 mg/dL
[5] = post-hoc, if KXX stopped when uric acid rose to greater than 6 mg/dL on a single occasion

pegloticase
mean fetal body weights (rabbits; approximately 25 times the MRHD, maternal doses up to 10 mg/kg twice weekly): No effects
mean fetal and pup body weights (rabbits; approximately 75 times the MRHD, maternal doses up to 30 mg/kg every other day): Statistically significant decreases
teratogenicity (rabbits; approximately 75 times the MRHD, maternal doses up to 30 mg/kg twice weekly): not teratogenic
patients with antibody titer exceeding 1:2430 at any time who maintained a response ([1]; another study, 7 of 65): 10.8%
patients with titers exceeding 1:2430 who developed IRs ([1]; another study, 31 of 52): 60%
patients who never had an antibody titer above 1:2430 who maintained a response ([1]; another study, 58/65): 89.2%
patients who developed high titer anti-pegloticase antibodies and subsequently lost response ([1]; one study, 69 of 169 patients): 41%
participants with high antibody titers who maintained a response (serum urate <6 mg/dL) ([1]; second study): 1 of 52
participants with high titers who developed IR ([1]; second study): 60%
efficacy in patients with creatinine clearance less than or equal to 62.5 mL/min ([2]; KXX 8 mg every 2 weeks): No overall differences
percentage of patients who achieved a complete response of tophi ([2]; Month 6, pooled Trial 1 and Trial 2, KXX 8 mg every 2 weeks): 45%
percentage of patients who achieved a complete response of tophi ([2]; Month 6, pooled Trial 1 and Trial 2, KXX 8 mg every 4 weeks): 26%
Number (%) of Subjects Who Met Response Criteria (plasma uric acid <6 mg/dL for at least 80% of the time during Months 3 and 6) ([2]; Trial 1, 8 mg every 2 weeks, N 43): 20 (47%) Number (%)
Number (%) of Subjects Who Met Response Criteria (plasma uric acid <6 mg/dL for at least 80% of the time during Months 3 and 6) ([2]; Trial 1, 8 mg every 4 weeks, N 41): 8 (20%) Number (%)
Number (%) of Subjects Who Met Response Criteria (plasma uric acid <6 mg/dL for at least 80% of the time during Months 3 and 6) ([2]; Trial 2, 8 mg every 2 weeks, N 42): 16 (38%) Number (%)
Number (%) of Subjects Who Met Response Criteria (plasma uric acid <6 mg/dL for at least 80% of the time during Months 3 and 6) ([2]; Trial 2, 8 mg every 4 weeks, N 43): 21 (49%) Number (%)
mean plasma uric acid level ([2]; approximately 24 hours following the first dose, KXX 8 mg every 2 weeks group): 0.7 mg/dL
efficacy outcome [2, 4]: little change
incidence of infusion reactions [2, 4]: half
reduction of success rates for the primary efficacy endpoint [2, 5]: approximately 20%
reduction of the incidence of infusion reactions [2, 5]: approximately 67%
stability diluted in infusion bags [3]: 4 h
